In PubChem BioAssay AID1963451 (Molecular Pharmacology Branch, DTP, NCI, 2024):
Values belong to the molecule of their own block, whether it stands above or below them.

Test system: 521955-158-R6-J3-PDC complex spheroid growth, % test/control
Test: Anticancer human tumor 521955-158-R6-J3-PDC patient-derived pancreatic carcinoma cell line growth inhibition [Asc]
Settings: for IC50: curve of first compound; for viability, T/C: stronger effect = lower value
In short: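 Spheroid model: tumor line + HUVEC + hMSC. Single agents and combinations; top conc. at/near clinical Cmax (10 microM if undetermined), half-log dilutions. DMSO stocks at 800-fold test concentration.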

[1] = second compound 0.00316 µM, first compound 0.0316 µM
[2] = second compound 0.00316 µM, first compound 0.1 µM
[3] = second compound 0.00316 µM, first compound 0.316 µM
[4] = second compound 0.00316 µM, first compound 1 µM
[5] = second compound 0.01 µM, first compound 0.0316 µM
[6] = second compound 0.01 µM, first compound 0.1 µM
[7] = second compound 0.01 µM, first compound 0.316 µM
[8] = second compound 0.01 µM, first compound 1 µM
[9] = second compound 0.0316 µM, first compound 0.0316 µM
[10] = second compound 0.0316 µM, first compound 0.1 µM
[11] = second compound 0.0316 µM, first compound 0.316 µM
[12] = second compound 0.0316 µM, first compound 1 µM
[13] = second compound 0.1 µM, first compound 0.0316 µM
[14] = second compound 0.1 µM, first compound 0.1 µM
[15] = second compound 0.1 µM, first compound 0.316 µM
[16] = second compound 0.1 µM, first compound 1 µM
[17] = second compound 0.316 µM, first compound 0.0316 µM
[18] = second compound 0.316 µM, first compound 0.1 µM
[19] = second compound 0.316 µM, first compound 0.316 µM
[20] = second compound 0.316 µM, first compound 1 µM
[21] = second compound 1 µM, first compound 0.0316 µM
[22] = second compound 1 µM, first compound 0.1 µM
[23] = second compound 1 µM, first compound 0.316 µM
[24] = second compound 1 µM, first compound 1 µM
[25] = second compound 0.00316 µM, first compound 0.00316 µM
[26] = second compound 0.00316 µM, first compound 0.01 µM
[27] = second compound 0.01 µM, first compound 0.00316 µM
[28] = second compound 0.01 µM, first compound 0.01 µM
[29] = second compound 0.0316 µM, first compound 0.00316 µM
[30] = second compound 0.0316 µM, first compound 0.01 µM
[31] = second compound 0.1 µM, first compound 0.00316 µM
[32] = second compound 0.1 µM, first compound 0.01 µM
[33] = second compound 0.316 µM, first compound 0.00316 µM
[34] = second compound 0.316 µM, first compound 0.01 µM
[35] = second compound 1 µM, first compound 0.00316 µM
[36] = second compound 1 µM, first compound 0.01 µM
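Further: spheroids exposed to compounds for 7 days.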
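Wherever viability, T/C is given: 100% = DMSO vehicle control wells.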

IC50 (second compound 0.00316 µM): > 10000 nM
IC50 (second compound 0.01 µM): > 10000 nM
IC50 (second compound 0.0316 µM): > 10000 nM
IC50 (second compound 0.1 µM): > 10000 nM
IC50 (second compound 0.316 µM): > 10000 nM
IC50 (second compound 1 µM): > 10000 nM
SMILES: C=CC(=O)N1CCN(c2nc(=O)n(-c3c(C)ccnc3C(C)C)c3nc(-c4c(O)cccc4F)c(F)cc23)C(C)C1 (stereo unspecified) + CNC(C)C(=O)NC1CN(S(=O)(=O)c2cccc(S(=O)(=O)N3CCC4CCC(C(=O)NC(c5ccccc5)c5ccccc5)N4C(=O)C(NC(=O)C(C)NC)C3)c2)CCC2CCC(C(=O)NC(c3ccccc3)c3ccccc3)N2C1=O
viability, T/C [1]: 98.2%
viability, T/C [2]: 110%
viability, T/C [3]: 116%
viability, T/C [4]: 121%
viability, T/C (second compound 0.00316 µM, first compound 3.16 µM): 98.8%
viability, T/C (second compound 0.00316 µM, first compound 10 µM): 80.4%
viability, T/C [5]: 121%
viability, T/C [6]: 85.3%
viability, T/C [7]: 89.8%
viability, T/C [8]: 94.9%
viability, T/C (second compound 0.01 µM, first compound 3.16 µM): 105%
viability, T/C (second compound 0.01 µM, first compound 10 µM): 81.3%
viability, T/C [9]: 95.2%
viability, T/C [10]: 76.5%
viability, T/C [11]: 108%
viability, T/C [12]: 95.1%
viability, T/C (second compound 0.0316 µM, first compound 3.16 µM): 104%
viability, T/C (second compound 0.0316 µM, first compound 10 µM): 70.8%
viability, T/C [13]: 92.2%
viability, T/C [14]: 78.7%
viability, T/C [15]: 88%
viability, T/C [16]: 108%
viability, T/C (second compound 0.1 µM, first compound 3.16 µM): 93%
viability, T/C (second compound 0.1 µM, first compound 10 µM): 66.7%
viability, T/C [17]: 89.7%
viability, T/C [18]: 91.6%
viability, T/C [19]: 79.2%
viability, T/C [20]: 107%
viability, T/C (second compound 0.316 µM, first compound 3.16 µM): 100%
viability, T/C (second compound 0.316 µM, first compound 10 µM): 84.2%
viability, T/C [21]: 81.4%
viability, T/C [22]: 82.5%
viability, T/C [23]: 89.5%
viability, T/C [24]: 88.7%
viability, T/C (second compound 1 µM, first compound 3.16 µM): 94.6%
viability, T/C (second compound 1 µM, first compound 10 µM): 83.5%

IC50 (second compound 0.00316 µM): 113 nM
IC50 (second compound 0.01 µM): 67.5 nM
IC50 (second compound 0.0316 µM): 69.3 nM
IC50 (second compound 0.1 µM): 74.5 nM
IC50 (second compound 0.316 µM): 75.2 nM
IC50 (second compound 1 µM): 50.9 nM
SMILES: COc1c(OCCCN2CCOCC2)ccc2c3n(c(=NC(=O)c4cnc(N)nc4)nc12)CCN3 + CNC(C)C(=O)NC1CN(S(=O)(=O)c2cccc(S(=O)(=O)N3CCC4CCC(C(=O)NC(c5ccccc5)c5ccccc5)N4C(=O)C(NC(=O)C(C)NC)C3)c2)CCC2CCC(C(=O)NC(c3ccccc3)c3ccccc3)N2C1=O
viability, T/C [25]: 81.4%
viability, T/C [26]: 62.2%
viability, T/C [1]: 60.6%
viability, T/C [2]: 55.5%
viability, T/C [3]: 41.2%
viability, T/C [4]: 23.8%
viability, T/C [27]: 83.7%
viability, T/C [28]: 67.5%
viability, T/C [5]: 54.4%
viability, T/C [6]: 47%
viability, T/C [7]: 40.9%
viability, T/C [8]: 26.4%
viability, T/C [29]: 80.9%
viability, T/C [30]: 63.9%
viability, T/C [9]: 54.4%
viability, T/C [10]: 49.7%
viability, T/C [11]: 41.9%
viability, T/C [12]: 26.6%
viability, T/C [31]: 87.2%
viability, T/C [32]: 61.9%
viability, T/C [13]: 59.5%
viability, T/C [14]: 50%
viability, T/C [15]: 38.4%
viability, T/C [16]: 27.7%
viability, T/C [33]: 68.9%
viability, T/C [34]: 66.6%
viability, T/C [17]: 52.5%
viability, T/C [18]: 48.5%
viability, T/C [19]: 40.5%
viability, T/C [20]: 24.9%
viability, T/C [35]: 77.1%
viability, T/C [36]: 56.4%
viability, T/C [21]: 53%
viability, T/C [22]: 49.1%
viability, T/C [23]: 37.2%
viability, T/C [24]: 24.3%

IC50 (second compound 0.00316 µM): > 100 nM
IC50 (second compound 0.01 µM): > 100 nM
IC50 (second compound 0.0316 µM): > 100 nM
IC50 (second compound 0.1 µM): > 100 nM
IC50 (second compound 0.316 µM): > 100 nM
IC50 (second compound 1 µM): > 100 nM
SMILES: NC1CCC(NC2CC2c2ccccc2)CC1 (stereo unspecified) + CNC(C)C(=O)NC1CN(S(=O)(=O)c2cccc(S(=O)(=O)N3CCC4CCC(C(=O)NC(c5ccccc5)c5ccccc5)N4C(=O)C(NC(=O)C(C)NC)C3)c2)CCC2CCC(C(=O)NC(c3ccccc3)c3ccccc3)N2C1=O
viability, T/C (second compound 0.00316 µM, first compound 0.000316 µM): 86%
viability, T/C (second compound 0.00316 µM, first compound 0.001 µM): 98.8%
viability, T/C [25]: 95.5%
viability, T/C [26]: 92.6%
viability, T/C [1]: 91.1%
viability, T/C [2]: 82.1%
viability, T/C (second compound 0.01 µM, first compound 0.000316 µM): 94%
viability, T/C (second compound 0.01 µM, first compound 0.001 µM): 85.2%
viability, T/C [27]: 77.6%
viability, T/C [28]: 93%
viability, T/C [5]: 91.4%
viability, T/C [6]: 82.3%
viability, T/C (second compound 0.0316 µM, first compound 0.000316 µM): 98.1%
viability, T/C (second compound 0.0316 µM, first compound 0.001 µM): 93.4%
viability, T/C [29]: 80%
viability, T/C [30]: 93.1%
viability, T/C [9]: 87.8%
viability, T/C [10]: 88.8%
viability, T/C (second compound 0.1 µM, first compound 0.000316 µM): 91.4%
viability, T/C (second compound 0.1 µM, first compound 0.001 µM): 80.8%
viability, T/C [31]: 68.5%
viability, T/C [32]: 86.1%
viability, T/C [13]: 89.6%
viability, T/C [14]: 66.3%
viability, T/C (second compound 0.316 µM, first compound 0.000316 µM): 83.8%
viability, T/C (second compound 0.316 µM, first compound 0.001 µM): 89.7%
viability, T/C [33]: 84.4%
viability, T/C [34]: 89%
viability, T/C [17]: 71%
viability, T/C [18]: 79.7%
viability, T/C (second compound 1 µM, first compound 0.000316 µM): 90.1%
viability, T/C (second compound 1 µM, first compound 0.001 µM): 77.8%
viability, T/C [35]: 76.9%
viability, T/C [36]: 96.5%
viability, T/C [21]: 92.2%
viability, T/C [22]: 83.8%
